Publication PMC6847200 (2019)
Each block holds one molecule with its values, some of them ahead of it.

Experiments:
Test in all cases: ITC
Conditions in all cases: 100 mM KCl, 20 mM MgCl2; 50 mM K-HEPES pH 7.5, 30 °C; apparent
[1] = tested on: env1 (RNA, riboswitch) GGGUGUAAUCUCCAAAAUAUGGUUGGGGAGCCUCCACCAGUGAACCGUAAAAUCGCUGUCACCACCC
[2] = tested on: env30 (RNA, riboswitch) GGACGUAGCCUGGGGGAUUGGCCCCAGGGCAUCCACGAGCUGGCCGCAACUAGCUGAGACCGUCC
[3] = tested on: env23 (RNA, riboswitch) GGGUGUAAUUCGGGGGAUUGGCCCCGGAGUAUCCACGACCGGACCAUAAUCCGGUGCAUCCACCC
[4] = tested on: xpt U51C + U75C76 (RNA, riboswitch) GGACAUAUAAUCGCGUGGAUAUGGCACGCAAGUUUCCACCGGGCACCGUAAAUGUCCGUCACUAUGUCC
[5] = tested on: env6 (RNA, riboswitch) GGACGUAAUCCUCCGAACAGGCGGGGGAGCAUCCACCGCCGGGCCUUAACCCGGUGUAACCGUCC
[6] = tested on: env1 C48A (RNA, riboswitch) GGGUGUAAUCUCCAAAAUAUGGUUGGGGAGCAUCCACCAGUGAACCGUAAAAUCGCUGUCACCACCC
[7] = tested on: env1 C51U (RNA, riboswitch) GGGUGUAAUCUCCAAAAUAUGGUUGGGGAGCCUCUACCAGUGAACCGUAAAAUCGCUGUCACCACCC
[8] = tested on: env1 U75A (RNA, riboswitch) GGGUGUAAUCUCCAAAAUAUGGUUGGGGAGCCUCCACCAGUGAACCGUAAAAUCGCUGACACCACCC
[9] = tested on: env1 A77U (RNA, riboswitch) GGGUGUAAUCUCCAAAAUAUGGUUGGGGAGCCUCCACCAGUGAACCGUAAAAUCGCUGUCUCCACCC
[10] = tested on: env1 C47,48U (RNA, riboswitch) GGGUGUAAUCUCCAAAAUAUGGUUGGGGAGUUUCCACCAGUGAACCGUAAAAUCGCUGUCACCACCC
[11] = tested on: xpt + U75C76 (RNA, riboswitch) GGACAUAUAAUCGCGUGGAUAUGGCACGCAAGUUUCUACCGGGCACCGUAAAUGUCCGUCACUAUGUCC
[12] = tested on: env1 G21A,C79U (RNA, riboswitch) GGGUAUAAUCUCCAAAAUAUGGUUGGGGAGCCUCCACCAGUGAACCGUAAAAUCGCUGUCACUACCC
[13] = tested on: env1 Δ(U75,C76) (RNA, riboswitch) GGGUGUAAUCUCCAAAAUAUGGUUGGGGAGCCUCCACCAGUGAACCGUAAAAUCGCUGACCACCC
[14] = tested on: env1 C78A (RNA, riboswitch) GGGUGUAAUCUCCAAAAUAUGGUUGGGGAGCCUCCACCAGUGAACCGUAAAAUCGCUGUCAACACCC

Structure (SMILES): Nc1nc2c(ncn2[C@@H]2O[C@H](CO)[C@@H](O)[C@H]2O)c(=O)[nH]1
- KD,rG [1]: 89 ± 10 nM
- KD,rG [2]: 36 000 ± 1000 nM
- KD,rG [3]: 51 000 ± 4000 nM

Structure (SMILES): Nc1nc2c(ncn2[C@H]2C[C@H](O)[C@@H](CO)O2)c(=O)[nH]1
- KD,2′-dG [1]: 34 ± 1 nM
- KD,2′-dG [2]: 2400 ± 900 nM
- KD,app [4]: 1.6 ± 0.1 µM
- KD,2′-dG [5]: 88 ± 3 nM
- KD,dG [6]: 7.1 ± 1.4 nM
- KD,dG [7]: 620 ± 180 nM
- KD,dG [8]: 1600 ± 300 nM
- KD,dG [9]: 250 ± 10 nM
- KD,dG [10]: 110 ± 10 nM
- KD,app [11]: 8.1 ± 0.6 µM
- KD,2′-dG [3]: 290 ± 50 nM
- KD,dG [12]: 570 ± 30 nM
- KD,dG [13]: 240 ± 50 nM
- KD,dG [14]: 41 000 ± 9000 nM

Structure (SMILES): O=c1[nH]cnc2nc[nH]c12
- KD,app [11]: 21 ± 2 µM

Other lines, results leading:

- KD [1]: 2.0 ± 0.1 µM
Structure (SMILES): Nc1nc2c(ncn2CCC(CO)CO)c(=O)[nH]1

- KD [1]: 0.56 ± 0.01 µM
Structure (SMILES): Nc1nc2c(ncn2COCCO)c(=O)[nH]1
